Results: PMC11989239, “Structure–Property Relationships in Novel Series of Photoswitchable Local Anesthetic Ethercaine Derivatives: Emphasis on Biological and Photophysical Properties” (International Journal of Molecular Sciences, 2025)
Counter-ions that a name gives are not always drawn.

Columns and labels:
[1] = Z-E isomerization half-life by UV/Vis spectrophotometry after 365 nm irradiation; format: physicochemical; conditions: for τ1/2 (DMSO), Z-E isomerization half-life: RT, after 365 nm 5 min; for τ1/2 (Aqueous Kolliphor ELP), Z-E isomerization half-life: aqueous 4% Kolliphor ELP solution
Protocol: As one of the main physicochemical properties of photopharmacological agents, the Z-E half-life was investigated, which determines the stability of the Z-isomer. The Z-E half-lifes were measured using UV/Vis spectrophotometry, converting the compound to the Z-isomer by irradiating with UV light and observing the change in absorption intensity due to reverse Z-E relaxation.
Z-E isomerization half-life was determined using UV/Vis spectroscopy. Solutions were prepared and kept in the dark at RT before the experiment. First, the spectrum in the dark was registered ( PSSdark) , which corresponds to the photostationary state (PSS) with E-isomer predominance. Then, the cuvette with the solution was irradiated with UV light (λ = 365 nm) for 5 min to give the PSS with Z-isomer predominance. The corresponding spectrum was registered ( PSS365nm) . During the subsequent isomerization, the kinetics of changes in the absorption value were recorded at the wavelength of the absorption maximum corresponding to the E-isomer ( λmax(E)) . Then, lnAt/A0 values were calculated using the Equation (1):(1) lnAt/A0=lnAbsPSS(dark)−Abstime/AbsPSS(dark)−AbsPSS(365nm), where AbsPSS(dark) , AbsPSS(365nm), and Abstime are absorbance values at λmax(E) in the dark at the beginning of the experiment, after UV light (λ = 365 nm) irradiation, and at different time points from 0 to 60 min, respectively. Then, a graph was plotted depending on lnAt/A0 values from time, the trend line was calculated, and a first-order rate constant (k) for the thermal back Z-E isomerization reaction was obtained as the slope of the trend line.
For a first-order reaction, half-life t1/2 can be calculated using the Equation (2):(2) t1/2=ln2/k

[2] = tested on: human dermal fibroblasts (DF2); test: In vitro cytotoxicity, MTT test, 24 h incubation; format: cell-based
Protocol: (§1) The culture of dermal fibroblast cells (DF2) was obtained from the collection of the Institute of Cytology of the Russian Academy of Sciences (Saint Petersburg, Russia). The cells were cultured in plastic vials with a cell growth surface of 25 cm^2 (Costar, Richmond, VA, USA) on DMEM/F12 medium with the addition of L-glutamine and 10% fetal bovine serum (FBS) (PanEco, Moscow, Russia). The cells were cultured at 37 °C in a humid atmosphere with a content of 5% CO2 (Binder CO2 incubator, Germany). Cell lines from 3 to 7 passages were used in the work. To conduct experiments to evaluate the cytotoxicity of compounds, cells were sieved into 96-well culture plates at a concentration of 10^5 cells per ml, incubated at 37 °C (humidified atmosphere, 5% carbon dioxide) for 24–28 h. Further, 50 µL of the studied substances was added. The cells were incubated with the compounds for 24 h at 37 °C. Next, the cytotoxic effect of the substances was evaluated by a colorimetric method using an MTT test and visually, using an inverted microscope. The criterion for evaluating the specific activity of the compound was the value of IC50, the concentration at which 50% death of culture cells was noted.

rabbit eye cornea = test: Surface anesthesia on the rabbit cornea, Regnier method (Regnier index); format: in vivo; conditions: for Local Anesthetic Activity (Regnier Index, Min—13, Max—1300) In the Dark / Local Anesthetic Activity (Regnier Index, Min—13, Max—1300) Under Irradiation (λ = 365 nm): 1% solution, 0.2 mL instilled, mean ± SD; for Local Anesthetic Activity (Regnier Index, Min—13, Max—1300) In the Dark: in the dark (E-form predominance); for Local Anesthetic Activity (Regnier Index, Min—13, Max—1300) Under Irradiation (λ = 365 nm): solution irradiated with UV 365 nm (Z-form predominance)
Protocol: Thus, the main biological property investigated in this work was the local anesthetic activity of the new derivatives in the dark (with a predominance of the E-form) and under irradiation (with a predominance of the Z-form). The evaluation of local anesthetic activity was conducted on the rabbit cornea using the Regnier method. […] RI values in darkness (451 ± 40) and under UV light irradiation (469 ± 37) for a 2% solution of lidocaine, used as a reference drug, were obtained previously and are independent of light exposure. A 4% aqueous solution of Kolliphor® ELP, used for solubilizing ethercaine and its derivatives and lacking intrinsic local anesthetic activity, was employed as a negative control. In vitro cytotoxicity studies were conducted to initially assess the safety of the compounds.
Non-anesthetized, mature male rabbits of a Soviet chinchilla breed weighing 2–3 kg, obtained from the KrolInfo farm (Orekhovo-Zuyevo, Russia), were used in this study. Animals were kept under standard conditions (humidity 50–60%, temperature 19–22 °C). A 12-h lighting cycle was maintained. Each animal was kept in a separate cage. Animals had ad libitum access to standard extruded feed “CHARA” (CJSC “Assortiment-Agro”, Turakovo Village, Moscow region, Russia) and clean drinking water. Water treatment was performed using a “7 TECHNOCOM” block modular system (LLC “7 TECH”, Moscow, Russia). For in vivo, surface anesthesia measurements, an in-house-made anesthesiometer with a fixed length of a nylon filament (l = 1.0 cm, d = 0.125 mm) was used. Statistical analysis was performed, and figures were plotted using the Python programming language’s standard functions and a Matplotlib package (Version 3.8) for Python. All biological data conformed to a normal distribution (Shapiro–Wilk’s W test, p > 0.05). All data are expressed as the mean ± standard deviation.
For determination of the rabbit eye cornea’s sensitivity using the surface anesthesia method, 12 rabbits with a basic sensitivity threshold (sensitivity threshold of the eye cornea to tactile impact of the anesthesiometer) of 1–2 touches were selected. They were used in experiments repeatedly with an interval of at least 5 days between the experiments. Each eye was considered as a separate experimental point. Three animals were used in each of the experimental groups (n = 6). Two animals (n = 4) were used in each of the negative control groups and in each of experimental groups with UV irradiation due to the expected lack of the effect and to minimize the number of animals in the experiment. Animals were randomly divided into groups. Before an experiment, the animals were immobilized, leaving the head free. Before each experiment, the animals’ eyelashes were cut out, and the basic threshold of sensitivity of the eye cornea to tactile contact was determined using an anesthesiometer.
The irradiation modes were described earlier. Experiments with animals were carried out in a darkened room with a 50W LED light source (λ = 625 nm), which lies outside the absorption bands of the UV/Vis spectrum of the test compound. Before the experiments, solutions of test compounds were irradiated for 5 min with UV light (λ = 365 nm, LED flashlight, 0.5 W).
The adaptation of a model of surface anesthesia on the rabbit’s cornea using the Regnier method for the study of light-controlled local anesthetics was described earlier. The test solution (0.2 mL) of the required concentration (2% for the lidocaine or 1% for the ethercaine and its derivatives) was instilled into each conjunctival sac. After that, the sensitivity threshold of the eye cornea to tactile impact was determined. The first determination was performed at the 8th minute of the experiment and then at the 10th, 12th, 15th, 20th, 25th, 30th, 35th, 40th, 45th, 50th, 55th, and 60th min (13 values overall). […]

[3] = In vitro cytotoxicity, MTT test, 24 h incubation; format: cell-based, human; conditions: human, dermal fibroblast cells (DF2), DF2 fibroblasts
Protocol: as §1

τ1/2 (Aqueous Kolliphor ELP column), Z-E isomerization half-life ([1]; value obtained for the solution in water) | Structure (SMILES) | τ1/2 (DMSO), Z-E isomerization half-life [1] | τ1/2 (Aqueous Kolliphor ELP), Z-E isomerization half-life [1] | IC50 [2] | Local Anesthetic Activity (Regnier Index, Min—13, Max—1300) In the Dark (rabbit eye cornea) | Local Anesthetic Activity (Regnier Index, Min—13, Max—1300) Under Irradiation (λ = 365 nm) (rabbit eye cornea) | IC50 at 24 h [3] | Decrease in Regnier index under UV light irradiation (365 nm) versus darkness (rabbit eye cornea; dark vs 365 nm)
– | Cl.Fc1cc(OCCN2CCOCC2)ccc1N=Nc1c(F)cccc1F [Compound 20g, 2,2′,6′-trifluoro-4-(2-(N-morpholino)-ethoxy)-azobenzene hydrochloride] | 137 h | 5.0 h | 180 µM | 437 ± 37 (n = 6) | 45 ± 9 (n = 4) | – | –
– | Cl.Fc1ccccc1N=Nc1c(F)cc(OCCN2CCOCC2)cc1F [Compound 20e, 2,2′,6-trifluoro-4-(2-(N-morpholino)-ethoxy)-azobenzene hydrochloride] | 703 h | 60 h | 190 µM | 395 ± 72 (n = 6) | 59 ± 18 (n = 4) | – | –
– | Cl.Fc1cc(OCCN2CCOCC2)cc(F)c1N=Nc1ccccc1 [Compound 20b, 2,6-difluoro-4-(2-(N-morpholino)-ethoxy)-azobenzene hydrochloride] | 456 h | 1.9 h | 180 µM | 538 ± 37 (n = 6) | 58 ± 8 (n = 4) | – | –
3.5 h | CN1CCN(CCOc2ccc(/N=N/c3ccccc3)cc2)CC1 [Compound 14, 4-(2-(4-Methyl-1-Piperazino)-Ethoxy)-Azobenzene Dihydrochloride] | 18.6 h | – | – | – | – | 60 µM | –
– | Cc1cnc(/N=N/c2ccc(OCCN3CCOCC3)cc2)s1 [Compound 25b, 2-(4-(2-(N-morpholino)-ethoxy)-phenylazo)-5-methylthiazole hydrochloride] | 0.083 h | 0.067 h | – | – | – | 440 µM | –
– | c1ccc(/N=N/c2ccccc2OCCN2CCOCC2)cc1 [Compound 9a, 2-(2-(N-morpholino)-ethoxy)-azobenzene hydrochloride] | 17.2 h | 125 h | – | – | – | > 1000 µM | –
– | Cl.Fc1cc(OCCN2CCOCC2)ccc1N=Nc1ccccc1 [Compound 20a, 2-fluoro-4-(2-(N-morpholino)-ethoxy)-azobenzene hydrochloride] | 7.8 h | 2.5 h | 190 µM | 509 ± 34 (n = 6) | 64 ± 15 (n = 4) | – | –
– | Cl.Fc1ccccc1N=Nc1ccc(OCCN2CCOCC2)cc1 [Compound 20c, 2′-fluoro-4-(2-(N-morpholino)-ethoxy)-azobenzene hydrochloride] | 3.6 h | 0.4 h | 190 µM | 590 ± 24 (n = 6) | 70 ± 7 (n = 4) | – | –
– | Cl.Fc1ccccc1N=Nc1ccc(OCCN2CCOCC2)cc1F [Compound 20d, 2,2′-difluoro-4-(2-(N-morpholino)-ethoxy)-azobenzene hydrochloride] | 8.1 h | 2.3 h | 190 µM | 419 ± 57 (n = 6) | 84 ± 8 (n = 4) | – | –
– | c1ccc(/N=N/c2ccc(OCCN3CCOCC3)cc2)cc1 [Compound 1, Ethercaine hydrochloride] | 2.1 h | 0.833 h | – | – | – | 210 µM | 19 fold
– | c1ccc(/N=N/c2cccc(OCCN3CCOCC3)c2)cc1 [Compound 9b, 3-(2-(N-morpholino)-ethoxy)-azobenzene hydrochloride] | 26.8 h | 437 h | – | – | – | 240 µM | –
– | CCN(CC)CCOc1ccc(N=Nc2ccccc2)cc1.Cl [Compound 16, 4-(2-(N,N-Diethylamino)Ethoxy)Azobenzene Hydrochloride] | 15.6 h | 6.0 h | – | – | – | 90 µM | –
– | Cl.Fc1cccc(F)c1N=Nc1ccc(OCCN2CCOCC2)cc1 [Compound 20f, 2′,6′-difluoro-4-(2-(N-morpholino)-ethoxy)-azobenzene hydrochloride] | 24 h | 1.0 h | 210 µM | 570 ± 87 (n = 6) | 76 ± 19 (n = 4) | – | –
– | Cl.Fc1cccc(F)c1N=Nc1c(F)cc(OCCN2CCOCC2)cc1F [Compound 20h, 2,2′,6,6′-tetrafluoro-4-(2-(N-morpholino)-ethoxy)-azobenzene hydrochloride] | 1190 h | 281 h | 440 µM | 353 ± 10 (n = 6) | 35 ± 7 (n = 4) | – | –
